Key:
[1] = Pharmacokinetics in C57 mice; settings: C57, mouse, in vivo
Method: After subcutaneous or intravenous administration to C57 mice, plasma was collected and the drug concentration in plasma was determined to illustrate the in vivo pharmacokinetic properties of the compound according to the present invention. […] 20.0 µL of thawed plasma sample was taken. 20 µL of 50% aqueous methanol solution (containing 100 ng mL^-1 Tolbutamide) and 60 µL of acetonitrile were added sequentially to precipitate protein. The mixture was vortexed for 5 minutes, and centrifuged at 4815 rpm for 8 minutes. 50.0 µL of the supernatant was taken, into which 50.0 µL of 0.5% aqueous formic acid solution was added. The mixture was vortexed for 5 minutes. 50 µL of the mixture solution was sampled and injected into the LC-MS/MS to determine the drug concentration in plasma. Based on the drug concentration in plasma of the compounds in C57 mice, the pharmacokinetic parameters were calculated by applying the software Winnolin 8.3 in a non-compartmental model, and the results were shown in Table 7 and Table 8 below. Table 7 Average Pharmacokinetic Parameters after Single Subcutaneous Administration to Mice

[2] = tested on: db/db mice; assay: Pharmacodynamic effects in db/db mice, single subcutaneous administration (blood glucose); assay type: in vivo; settings: single s.c. 10 nmol/kg; for Hypoglycemic Duration: Group 2, longest time with p<0.05 vs. vehicle
Method in brief: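 Male db/db mice aged 8-9 weeks, fed ad libitum, were grouped by initial glucose and body weight (n=6) and dosed once subcutaneously. Random blood glucose from tail tip was tracked over 0 to 120 hours against vehicle. Hypoglycemic duration is the longest time with a significant difference from vehicle (T-test, p<0.05).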

[3] = tested on: db/db mice; assay: Multiple administration experiment on db/db mice; assay type: in vivo; settings: db/db mice, s.c. every 3 days for 4 weeks, Mean±SEM, 6 mice
Method: "Minimum effective dose" as disclosed in the present invention refers to the minimum administration dose at which the drug effect is produced.
"Efficacy dose" as disclosed in the present invention refers to the administration dose at which the drug effect is produced.
In this study, 7-8 week old male db/db mice were used. The db/db mice were placed in an individual ventilated cage (IVC) facility with a controlled temperature (20-26°C) and humidity (40-70%) and a controlled 12:12 h light-dark cycle. The mice received food and water ad libitum. Blood were sampled at the tail tip, and the base blood glucose was measured by a Roche blood glucose meter. The mice were randomly divided into groups according to the initial blood glucose and initial body weight (n=6/group), and each group had similar body weight and blood glucose.
The mice were subcutaneously administrated every 3 days for 4 weeks. Subcutaneous administration was conducted on days 1, 4, 7, 10, 13, 16, 19, 22 and 25. Random blood glucose was recorded every 3 days throughout the study. On day 28, the fasting blood glucose was measured. Then the blood was collected by orbital blood sampling. After the orbital blood sampling, the animals were sacrificed, and the liver was taken and weighed. After 1 to 2 hours, the collected blood was centrifuged at 3000 rpm for 10 min to separate the serum. Biochemical indicators such as triglyceride (TG), alanine aminotransferase (ALT), and total bilirubin (TBIL) were determined with a biochemical analyzer. The data results were statistically analyzed using GraphPad Prism8, and the statistical differences among the groups were analyzed following T-Test. Significant differences were identified at p<0.05.

Work on `CC[C@H](C)[C@H](NC(=O)C(C)(C)NC(=O)[C@H](Cc1ccc(O)cc1)NC(=O)[C@H](CC(=O)O)NC(=O)[C@H](CO)NC(=O)[C@@H](NC(=O)C(C)(Cc1ccccc1)NC(=O)[C@@H](NC(=O)CNC(=O)[C@H](CCC(=O)O)NC(=O)C(C)(C)NC(=O)[C@@H](N)Cc1ccc(O)cc1)[C@@H](C)O)[C@@H](C)O)C(=O)NC(C)(C)C(=O)N[C@@H](CC(C)C)C(=O)N[C@@H](CC(=O)O)C(=O)N[C@@H](CCCCN)C(=O)N[C@@H](CCC(N)=O)C(=O)N[C@@H](C)C(=O)N[C@@H](CCC(N)=O)C(=O)N[C@@H](C)C(=O)N[C@@H](CCC(=O)O)C(=O)N[C@@H](Cc1ccccc1)C(=O)N[C@H](C(=O)N[C@@H](CCCCN)C(=O)N[C@@H](Cc1c[nH]c2ccccc12)C(=O)N[C@@H](CC(C)C)C(=O)N[C@@H](CC(C)C)C(=O)N[C@@H](CCCCNC(=O)COCCOCCNC(=O)COCCOCCNC(=O)COCCOCCNC(=O)CC[C@H](NC(=O)CCCCCCCCCCCCCCCCCCCCC(=O)O)C(=O)O)C(=O)NCC(=O)NCC(=O)N1CCC[C@H]1C(=O)N[C@@H](CO)C(=O)N[C@@H](CO)C(=O)NCC(=O)N[C@@H](C)C(=O)N1CCC[C@H]1C(=O)N1CCC[C@H]1C(=O)N1CCC[C@H]1C(=O)N[C@@H](CO)C(=O)N[C@@H](CCCCN)C(N)=O)C(C)C` (stereo partly shown) [Compound P020] yielded an AUC(0-inf) ([1]; iv) of 17400 ng·h/mL, an AUC(0-t) ([1]; iv) of 16300 ng·h/mL and a C0 ([1]; iv) of 1820 ng/mL. It also gave a half-life ([1]; iv) of 16.7 h, an MRT ([1]; iv, MRT(0-t)) of 16.8 h and an MRT ([1]; iv, MRT(0-∞)) of 21.8 h. For the same molecule, the AUC(0-inf) ([1]; sc) was 21100 ng·h/mL, the AUC(0-t) ([1]; sc) was 19000 ng·h/mL and the Cmax ([1]; sc) was 836 ng/mL. It also gave a Tmax ([1]; sc) of 4.25 h, a half-life ([1]; sc) of 19.9 h and an MRT ([1]; sc, MRT(0-t)) of 21.8 h. For the same molecule, the MRT ([1]; sc, MRT(0-∞)) was 29.4 h, the “inhibition of the blood glucose AUC, times of that of Tirzepatide” value [2] was 2.0 times and the “Hypoglycemic Duration” value [2] was 104 h. For the same molecule, the “AUC 4-25 day Glu” value ([3]; 3 nmol/kg) was 268.28 ± 24.64 mmol·days/L, the “D28 FBG(Fasting Blood Glucose)” value ([3]; 3 nmol/kg) was 9.6 ± 1.32 mmol/L and the “Liver Weight” value ([3]; 3 nmol/kg) was 2.03 ± 0.09 g. For the same molecule, the “Serum ALT” value ([3]; 3 nmol/kg) was 214.56±43.83 U/L, the “Serum TBIL” value ([3]; 3 nmol/kg) was 1.54 ± 0.25 µmol/L and the “Serum TG” value ([3]; 3 nmol/kg) was 1.37 ± 0.12 mmol/L. For the same molecule, the “AUC 4-25 day Glu” value ([3]; 10 nmol/kg) was 290.78 ± 27.25 mmol·days/L, the “D28 FBG(Fasting Blood Glucose)” value ([3]; 10 nmol/kg) was 10.7 ± 1.62 mmol/L and the “Liver Weight” value ([3]; 10 nmol/kg) was 2.09 ± 0.1 g. For the same molecule, the “Serum ALT” value ([3]; 10 nmol/kg) was 113.48±24.18 U/L, the “Serum TBIL” value ([3]; 10 nmol/kg) was 0.91 ± 0.05 µmol/L and the “Serum TG” value ([3]; 10 nmol/kg) was 1.07 ± 0.03 mmol/L. The “AUC 4-25 day Glu” value ([3]; 30 nmol/kg) was 184.18 ± 22.44 mmol·days/L, the “D28 FBG(Fasting Blood Glucose)” value ([3]; 30 nmol/kg) was 8.22 ± 1.07 mmol/L and the “Liver Weight” value ([3]; 30 nmol/kg) was 1.83 ± 0.16 g. For the same molecule, the “Serum ALT” value ([3]; 30 nmol/kg) was 112.47±16.69 U/L, the “Serum TBIL” value ([3]; 30 nmol/kg) was 0.95 ± 0.28 µmol/L and the “Serum TG” value ([3]; 30 nmol/kg) was 1.2 ± 0.07 mmol/L.

In the case of `CC[C@H](C)[C@H](NC(=O)C(C)(C)NC(=O)[C@H](Cc1ccc(O)cc1)NC(=O)[C@H](CC(=O)O)NC(=O)[C@H](CO)NC(=O)[C@@H](NC(=O)C(C)(Cc1ccccc1)NC(=O)[C@@H](NC(=O)CNC(=O)[C@H](CCC(=O)O)NC(=O)C(C)(C)NC(=O)[C@@H](N)Cc1ccc(O)cc1)[C@@H](C)O)[C@@H](C)O)C(=O)NC(C)(C)C(=O)N[C@@H](CC(C)C)C(=O)N[C@@H](CC(=O)O)C(=O)N[C@@H](CCCCN)C(=O)N[C@@H](CCC(N)=O)C(=O)N[C@@H](C)C(=O)N[C@@H](CCC(N)=O)C(=O)N[C@@H](C)C(=O)N[C@@H](CCC(=O)O)C(=O)N[C@@H](Cc1ccccc1)C(=O)N[C@H](C(=O)N[C@@H](CCCCN)C(=O)N[C@@H](Cc1c[nH]c2ccccc12)C(=O)N[C@@H](CC(C)C)C(=O)N[C@@H](CC(C)C)C(=O)N[C@@H](CCCCNC(=O)COCCOCCNC(=O)COCCOCCNC(=O)CC[C@H](NC(=O)CCCCCCCCCCCCCCCCCCCCC(=O)O)C(=O)O)C(=O)NCC(=O)NCC(=O)N1CCC[C@H]1C(=O)N[C@@H](CO)C(=O)N[C@@H](CO)C(=O)NCC(=O)N[C@@H](C)C(=O)N1CCC[C@H]1C(=O)N1CCC[C@H]1C(=O)N1CCC[C@H]1C(=O)N[C@@H](CO)C(=O)N[C@@H](CCCCN)C(N)=O)C(C)C` (stereo partly shown) [Compound P017], the “Hypoglycemic Duration” value [2] is reported as 72 h, the “AUC 4-25 day Glu” value ([3]; 3 nmol/kg) is reported as 303.78 ± 33.24 mmol·days/L and the “D28 FBG(Fasting Blood Glucose)” value ([3]; 3 nmol/kg) is reported as 11.68 ± 1.7 mmol/L. For the same molecule, the “Liver Weight” value ([3]; 3 nmol/kg) was 2.14 ± 0.08 g, the “Serum ALT” value ([3]; 3 nmol/kg) was 105.16±7.1 U/L and the “Serum TBIL” value ([3]; 3 nmol/kg) was 0.88 ± 0.26 µmol/L. The “Serum TG” value ([3]; 3 nmol/kg) was 1.58 ± 0.17 mmol/L, the “AUC 4-25 day Glu” value ([3]; 10 nmol/kg) was 249.65 ± 47.65 mmol·days/L and the “D28 FBG(Fasting Blood Glucose)” value ([3]; 10 nmol/kg) was 11.95 ± 2.51 mmol/L. For the same molecule, the “Liver Weight” value ([3]; 10 nmol/kg) was 2.11 ± 0.09 g, the “Serum ALT” value ([3]; 10 nmol/kg) was 141.65±12.72 U/L and the “Serum TBIL” value ([3]; 10 nmol/kg) was 1.59 ± 0.07 µmol/L. For the same molecule, the “Serum TG” value ([3]; 10 nmol/kg) was 1.19 ± 0.05 mmol/L, the “AUC 4-25 day Glu” value ([3]; 30 nmol/kg) was 294.96 ± 11.96 mmol·days/L and the “D28 FBG(Fasting Blood Glucose)” value ([3]; 30 nmol/kg) was 10.08 ± 0.79 mmol/L. For the same molecule, the “Liver Weight” value ([3]; 30 nmol/kg) was 2.35 ± 0.09 g, the “Serum ALT” value ([3]; 30 nmol/kg) was 176.48±51.6 U/L and the “Serum TBIL” value ([3]; 30 nmol/kg) was 1.11 ± 0.1 µmol/L. The “Serum TG” value ([3]; 30 nmol/kg) was 1.09 ± 0.06 mmol/L.
